The source of these data is BindingDB's records for patent US20250313563 (The Broad Institute, 2025).

Molecules are shown by their SMILES. pIC50: −log10 of the molar value. Where “and” joins values, the source holds several entries; their conditions need not be identical. Equal entries are not always repeated. Some results are limits rather than exact numbers.

For assay [1], the target named is Glycogen synthase kinase-3 beta (Homo sapiens, UniProt P49841). Put plainly: TR-FRET Assay. Summed up: (§1)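 Enzyme and test compound were first incubated together for 30 minutes in assay buffer. The kinase reaction followed and was stopped with EDTA. The pSer641 signal was read by time-resolved FRET.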
For orientation: TR-FRET usually uses a lanthanide donor and a delayed reading to cut background.

In assay [2] the target is Glycogen synthase kinase-3 alpha (Homo sapiens, UniProt P49840). In words: TR-FRET Assay. Summed up:
as §1

Sequence of Glycogen synthase kinase-3 alpha (P49840 whole entry): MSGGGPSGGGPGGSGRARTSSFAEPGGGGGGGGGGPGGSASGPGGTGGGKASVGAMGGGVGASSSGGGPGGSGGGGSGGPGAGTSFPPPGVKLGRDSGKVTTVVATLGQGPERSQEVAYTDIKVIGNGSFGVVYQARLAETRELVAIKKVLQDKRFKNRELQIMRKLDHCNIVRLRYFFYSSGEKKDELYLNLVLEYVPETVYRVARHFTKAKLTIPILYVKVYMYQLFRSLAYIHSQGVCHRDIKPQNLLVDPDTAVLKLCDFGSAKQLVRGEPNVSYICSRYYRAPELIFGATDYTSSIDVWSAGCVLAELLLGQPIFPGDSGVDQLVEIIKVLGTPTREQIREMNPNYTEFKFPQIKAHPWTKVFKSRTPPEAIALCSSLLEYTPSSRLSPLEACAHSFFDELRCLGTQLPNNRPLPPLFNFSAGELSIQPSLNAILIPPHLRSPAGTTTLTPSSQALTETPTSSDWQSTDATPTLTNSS
Sequence of Glycogen synthase kinase-3 beta (P49841 whole entry): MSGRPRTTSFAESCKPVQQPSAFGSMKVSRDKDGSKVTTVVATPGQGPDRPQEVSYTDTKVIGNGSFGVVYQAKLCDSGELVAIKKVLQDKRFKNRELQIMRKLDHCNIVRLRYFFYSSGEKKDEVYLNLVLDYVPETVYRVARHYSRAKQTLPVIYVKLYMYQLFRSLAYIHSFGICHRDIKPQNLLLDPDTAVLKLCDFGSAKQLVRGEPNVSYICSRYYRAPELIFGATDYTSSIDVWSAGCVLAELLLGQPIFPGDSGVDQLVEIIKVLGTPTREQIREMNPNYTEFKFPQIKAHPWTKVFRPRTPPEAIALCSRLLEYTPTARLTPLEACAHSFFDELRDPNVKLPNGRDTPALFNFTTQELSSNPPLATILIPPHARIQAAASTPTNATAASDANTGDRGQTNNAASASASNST

Broadly, the pIC50 is the IC50 on a negative log10 scale, so that one unit is a factor of ten. A high value points to a small IC50. In the case of `CC[C@@]1(c2cccc(-c3ccnc(C)c3)c2)C2=C(CC(C)(C)NC2=O)NC2N=NC(C)=C21` (some centres not stated) [US20250313563, Compound 948420], the pIC50 was 6.00 to 7.00 in assay [1] and > 7.00 in assay [2].
The like results for `CC(C)(C)CC1=C2C(N=N1)NC1=C(C(=O)CC(C)(C)C1)[C@@]21CCc2c(F)cccc21` (some centres not stated) [US20250313563, Compound 791257] were, in that order, > 7.00 and > 7.00.
The like results for `CC[C@@]1(c2cccc(C(F)(F)F)c2)C2=CN=NC2NC2=C1C(=O)N(C)C[C@@H]2C` (some centres not stated) [US20250313563, Compound 883981] were, in that order, < 5.30 and < 5.30.
As for `CC[C@@]1(c2cccc(-c3cc(C)nc4c3cnn4C)c2)C2=CN=NC2NC2=C1C(=O)NC(C)(C)C2` (some centres not stated) [US20250313563, Compound 952563], the pIC50 was < 5.30 in assay [1] and 5.30 to 6.00 in assay [2].
For `CCC1(c2cccc(-c3cn(C)nc3C)c2)C2=CN=NC2NC2=C1C(=O)NC(C)(C)C2` (configuration not stated) [US20250313563, Compound 944030], in that order: > 7.00 and > 7.00.
The like results for `CC[C@@]1(c2cccc(-c3ccnc(C)c3)c2)C2=C(N=NC2)NC2=C1C(=O)C(C)(C)C2` [US20250313563, Compound 950283] were, in that order, < 5.30 and 5.30 to 6.00.
Turning to `CC1(C)CC(=O)C2=C(C1)NC1=C(CN=N1)C21COC2(CN(C(=O)Cc3ccccc3)C2)C1` (configuration not stated) [US20250313563, Compound 947306], the pIC50 in assay [1] and in assay [2] was > 7.00 in each case.
`CC1(C)CC(=O)C2=C(C1)NC1N=NC(CCC(F)(F)F)=C1[C@]2(C)c1ccccc1` (some centres not stated) [US20250313563, Compound 856949]: the pIC50 was > 7.00 in assay [1] and 6.00 to 7.00 in assay [2].
In the case of `CC[C@@]1(c2cccc([C@H]3CCOC3)c2)C2=CN=NC2NC2=C1C(=O)CC(C)(C)C2` (some centres not stated) [US20250313563, Compound 889558], the pIC50 is 6.00 to 7.00 in assay [1] and > 7.00 in assay [2].
For `CC(C)Oc1ccc(S(=O)(=O)N2CCC3(CC2)C2=C(N=NC2)NC2=C3C(=O)CC(C)(C)C2)cc1` [US20250313563, Compound 945673], in that order: > 7.00 and > 7.00.
The like results for `O=C1CCCC2=C1C1(CCOCC1)C1=C(N=NC1)N2` [US20250313563, Compound 884111] were, in that order, < 5.30 and 5.30 to 6.00.
In the case of `CC[C@@]1(c2cccc(C3CC3)c2)C2=CN=NC2NC2=C1C(=O)NC(C)(C)C2` (some centres not stated) [US20250313563, Compound 950817], the pIC50 in assay [1] and in assay [2] was < 5.30 throughout.
In the case of `CC[C@]1(c2cccc(-c3ccnc(C)c3)c2)C2=CN=NC2NC2=C1C(=O)N[C@]1(CCCOC1)C2` (some centres not stated) [US20250313563, Compound 948146], the pIC50 in assay [1] was < 5.30; in assay [2] it was 5.30 to 6.00.
The like results for `CC[C@@]1(c2cccc(-c3cnn(Cc4cccc(C(F)(F)F)c4)c3)c2)C2=CN=NC2NC2=C1C(=O)NC(C)(C)C2` (some centres not stated) [US20250313563, Compound 951848] were, in that order, 6.00 to 7.00 and > 7.00.
The like results for `CC[C@]1(c2cccc(Br)c2)C2=CN=NC2NC2=C1C(=O)C[C@H](C(F)(F)F)C2` (some centres not stated) [US20250313563, Compound 826655] were, in that order, < 5.30 and < 5.30.
On to `Cn1ccc(S(=O)(=O)N2CC[C@@]3(C2)C2=C(N=NC2)NC2=C3C(=O)CC(C)(C)C2)n1` [US20250313563, Compound 943484], for which the negative logarithm of the IC50 (pIC50) was > 7.00 and 5.30 to 6.00 in assay [1]; > 7.00 and 6.00 to 7.00 in assay [2].
As for `CC[C@]1(c2cccc(-c3ccnc(C)c3)c2)C2=CN=NC2NC2=C1C(=O)CC(C)(C)[C@H]2F` (some centres not stated) [US20250313563, Compound 946103], the pIC50 was 5.30 to 6.00 in assay [1] and 6.00 to 7.00 in assay [2].
The like results for `Cc1ccccc1CC(=O)N1CC2(C1)CC1(CO2)C2=C(N=NC2)NC2=C1C(=O)CC(C)(C)C2` (configuration not stated) [US20250313563, Compound 947295] were, in that order, > 7.00 and > 7.00.
As to `CCC1(c2cccc(C(F)F)c2)C2=CN=NC2NC2=C1C(=O)NC(C)(C)C2` (configuration not stated) [US20250313563, Compound 947864], the pIC50 in assay [1] was 6.00 to 7.00; in assay [2] it was > 7.00.
The like results for `CC(=O)N1CC[C@]2(C1)C[C@@]1(CO2)C2=C(N=NC2)NC2=C1C(=O)CC(C)(C)C2` [US20250313563, Compound 948319] were, in that order, 6.00 to 7.00 and > 7.00.
For `CC[C@]1(c2cccc(C3CN(C(C)=O)C3)c2)C2=CN=NC2NC2=C1C(=O)CC(C)(C)C2` (some centres not stated) [US20250313563, Compound 949131], in that order: 5.30 to 6.00 and 6.00 to 7.00.
The like results for `CC1(C)CC(=O)C2=C(C1)NC1N=NC=C1C21CN(c2ccc(C(F)(F)F)cc2)C1` (configuration not stated) [US20250313563, Compound 945478] were, in that order, 6.00 to 7.00 and 6.00 to 7.00.
As to `CC1(C)CC(=O)C2=C(C1)NC1=C(CN=N1)C21COC2(CN(C(=O)C3CCC(F)C3)C2)C1` (configuration not stated) [US20250313563, Compound 947486], the pIC50 in assay [1] and in assay [2] was > 7.00 each time.
As to `CC1(C)CC(=O)C2=C(C1)NC1=C(CN=N1)C21CN(c2ccccc2)C1` [US20250313563, Compound 948298], the pIC50 in assay [1] and in assay [2] was > 7.00 in each case.
Take `CCC1(c2cccc(Cl)c2)C2=C(CC(C)(C)CC2=O)NC2N=NC(Br)=C21` (configuration not stated) [US20250313563, Compound 789564]: the pIC50 in assay [1] and in assay [2] was > 7.00 in each case.
As to `CC1(C)CC(=O)C2=C(C1)NC1=C(CN=N1)C2(C)c1cc(C(F)(F)F)ccc1F` (configuration not stated) [US20250313563, Compound 810376], the pIC50 in assay [1] is 6.00 to 7.00; in assay [2] it was > 7.00.
For `CCC1(c2cccc(-c3cnn(C)c3)c2)C2=CN=NC2NC2=C1C(=O)CC(C)(C)C2` (configuration not stated) [US20250313563, Compound 816871], in that order: 6.00 to 7.00 and > 7.00.
For `CC[C@@]1(c2cccc(-c3ccncc3C)c2)C2=CN=NC2NC2=C1C(=O)N[C@]1(CCCOC1)C2` (some centres not stated) [US20250313563, Compound 947910], in that order: > 7.00 and > 7.00.
For the compound `CC[C@]1(c2cccc(C(F)(F)F)c2)C2=C(NC3=NN=CC31)c1ccccc1C2=O` (some centres not stated) [US20250313563, Compound 949743], the pIC50 is > 7.00 and 6.00 to 7.00 in assay [1]; > 7.00 in assay [2].
In the case of `Cn1ccc(S(=O)(=O)N2CC[C@]3(C2)C2=C(N=NC2)NC2=C3C(=O)CC(C)(C)C2)n1` [US20250313563, Compound 945714], the pIC50 in assay [1] and in assay [2] was > 7.00 throughout.
Regarding `CC1CC(=O)C2=C(C1)NC1=C(CN=N1)C21CCOCC1` (configuration not stated) [US20250313563, Compound 884112], the pIC50 in assay [1] and in assay [2] was 6.00 to 7.00 throughout.
In the case of `CCC1(c2cccc(Br)c2)C2=C(N=NC2)NC2=C1C(=O)CC(C)(C)C2` (configuration not stated) [US20250313563, Compound 789312], the values for the pIC50 in assay [1] and in assay [2] were 6.00 to 7.00 and > 7.00, respectively.
`CC[C@]1(c2cc(-c3cnn(C)c3)ccc2F)C2=CN=NC2NC2=C1C(=O)CC(C)(C)C2` (some centres not stated) [US20250313563, Compound 909220]: the pIC50 in assay [1] is 6.00 to 7.00; in assay [2], > 7.00.
For the compound `CCC1(c2ccccc2)C2=C(CC(C)(C)CC2=O)NC2N=NC(C(F)(F)F)=C21` (configuration not stated) [US20250313563, Compound 792343], the pIC50 in assay [1] and in assay [2] was > 7.00 throughout.
On to `CC[C@]1(c2cccc(-c3ccnc(C(F)F)c3)c2)C2=CN=NC2NC2=C1C(=O)NC(C)(C)C2` (some centres not stated) [US20250313563, Compound 949388], for which the pIC50 was < 5.30 in assay [1] and 5.30 to 6.00 in assay [2].
For `Cc1ccc(C(=O)N2CC3(C2)CC2(CO3)C3=C(N=NC3)NC3=C2C(=O)CC(C)(C)C3)cc1C` (configuration not stated) [US20250313563, Compound 947286], in that order: > 7.00 and > 7.00.
For `CC[C@]1(c2cccc(C(F)(F)F)c2)C2=CN=NC2NC2=C1C(=O)N(CC(F)(F)F)CC2` (some centres not stated) [US20250313563, Compound 912205], in that order: < 5.30 and < 5.30.
The like results for `CCC1(c2cccc(N3CCCCC3)c2)C2=CN=NC2NC2=C1C(=O)CC(C)(C)C2` (configuration not stated) [US20250313563, Compound 801320] were, in that order, 6.00 to 7.00 and 6.00 to 7.00.
Take `CC[C@@]1(c2cccc(N(C)c3cc(C)cc(C)n3)c2)C2=CN=NC2NC2=C1C(=O)CC(C)(C)C2` (some centres not stated) [US20250313563, Compound 945610]: the pIC50 in assay [1] was 6.00 to 7.00; in assay [2], > 7.00.
Regarding `Cc1cc(C)cc(C(=O)N2CC3(C2)CC2(CO3)C3=C(N=NC3)NC3=C2C(=O)CC(C)(C)C3)c1` (configuration not stated) [US20250313563, Compound 947296], the pIC50 in assay [1] and in assay [2] was > 7.00 throughout.
Turning to `CC1(C)CC(=O)C2=C(C1)NC1=C(CN=N1)C21CCCNCC1` (configuration not stated) [US20250313563, Compound 889571], the pIC50 in assay [1] and in assay [2] was < 5.30 each time.
As for `CCC1(c2cccc(-c3cc(C)ncc3C)c2)C2=C(CC(C)(C)CC2=O)NC2N=NC(C)=C21` (configuration not stated) [US20250313563, Compound 883988], the pIC50 in assay [1] and in assay [2] was > 7.00 in each case.
For the compound `CCC1(c2cccc(-c3cncn3C(C)C)c2)C2=CN=NC2NC2=C1C(=O)CC(C)(C)C2F` (configuration not stated) [US20250313563, Compound 963155], the pIC50 in assay [1] and in assay [2] was > 7.00 in each case.
As for `CC[C@@]1(c2cccc(C(F)F)c2)C2=C(CC(C)(C)CC2=O)NC2N=NC(C(F)(F)F)=C21` (some centres not stated) [US20250313563, Compound 945708], the pIC50 is 6.00 to 7.00 in assay [1] and > 7.00 in assay [2].
With `CC[C@]1(c2cccc(-c3ccncc3F)c2)C2=C(CC(C)(C)NC2=O)NC2N=NC(C(F)F)=C21` (some centres not stated) [US20250313563, Compound 951612], the pIC50 in assay [1] was > 7.00 and 5.30 to 6.00; in assay [2], > 7.00 and 6.00 to 7.00.
Turning to `CC1(C)CC(=O)C2=C(C1)NC1=C(CN=N1)C21CN(Cc2ccccc2)C1` [US20250313563, Compound 929436], the pIC50 in assay [1] and in assay [2] was < 5.30 throughout.
